“And” between values parts separate entries of the source, which are not always exact repeats. Equal values may be shown once.
Test: Pharmacokinetics study after separate oral administration in rats (HPLC-MS of plasma)
Assay type: in vivo, Sprague-Dawley rats
Details: for Plasma concentrations: individual rats NO. 1-5; for AUC(0-t) / Cmax / Tmax / t1/2z: labelled substance = analyte, individual rats No1-No5
Protocol: A total of 15 SPF Sprague-Dawley rats (SD, male, 190–210 g) were provided by Sino-British Sippr/BK Lab Animal Company Ltd. (Shanghai, China). The rats were kept in standard conditions (22–26 °C; 40–60% relative humidity; 12 h light/dark cycle). Throughout the rearing period, the animals had access to food and water ad libitum. Animal experiments were conducted in accordance with the standard ethical guidelines of the Laboratory Animal Management Committee of Jiangsu Province (SYXK (SU) 2016-0011).
Following 1 week of adaptation, the rats were fasted for about 12 h before dosing, with free access to water. […] After administration of the first dose, blood samples were taken from the retro-orbital vein at 0, 5, 15, 30, 60, 90, 120, 180, 240, 360, 480, and 1,440 min and collected in heparinized tubes. The samples were centrifuged at 3,500 rpm for 10 min at 4 °C and the plasma was stored at −80 °C until analysis.
An Agilent 1,200 series HPLC system (Agilent Technologies, Waldbronn, Germany) equipped with a quaternary pump on-line degasser, auto-sampler and column oven, and an SL G1946D quadruple mass spectrometer (Agilent Technologies, Santa Clara, CA, USA) equipped with an electrospray ionization (ESI) source, were used for separation and detection. Data were acquired and analyzed using Agilent ChemStation Software Version A.01.00 (Agilent Technologies, Santa Clara, CA, USA).
The separation was carried out with an Amethyst C18-H column (150 × 4.6 mm, 5 μm, Sepax Technologies, Newark, DE, USA) with a guard column SB-C18 (10 × 4.6 mm, 5 μm, Phenomenex Technologies, Torrance, USA) at a constant temperature of 25 °C.
The mass spectra were acquired using ESI interfaced to a single quadrupole mass spectrometer. The ionization conditions were as follows: drying gas (N2) flow rate of 11 L/min, drying gas temperature of 350 °C, nebulizing gas (N2) pressure of 35 psi, capillary voltage of 3,500 V, quad temperature of 100 °C, and fragment voltage of 110 V. A series of m/z were monitored using a timed program according to the retention times and characteristic ions for the corresponding HPLC-MS peak obtained by scanning from m/z 100–1,000 in the standard sample.
Briefly, an aliquot of plasma sample (100 μL) was spiked with 5% formic acid (10 μL) in centrifuge tube. Subsequently, hydrochloric acid (2 mol/L, 10 μL) and IS solution (960.00 ng/mL, 20 μL) were added. Then ethyl acetate/n-butyl alcohol (1:1 v/v; 1,000 μL) was used to extract the components. The samples were then homogenized by vortex mixing and centrifuged for 10 min at 14,000 rpm. After centrifugation, 800 μL of supernatant was transferred to another centrifuge tube and the sample was evaporated to dryness. The residues were dissolved in 100 μL of methanol and centrifuged for 10 min at 12,000 rpm. 50 μL of the supernatant was transferred to the vial and an aliquot of 5 μL was injected into the HPLC-MS system for analysis.
DAS 2.0 (Chinese Pharmacological Association, Shanghai, China) was used to calculate the pharmacokinetic parameters using the non-compartment model, including the area under curve (AUC), mean residence time (MRT), half-life ( t1/2z), clearance rate (CL), maximum plasma concentration (Cmax), and time (Tmax). All results are expressed as mean ± standard deviation (SD). One way analysis of variance followed by […] was used for comparison of different groups using Graph pad prism 5 software. A p-value of <0.05 was considered statistically significant.

[1] = IQ group (oral IQ 50 mg/kg), rat plasma
[2] = QG group (oral QG 50 mg/kg), rat plasma
[3] = Qr group (oral Qr 50 mg/kg), rat plasma

With `O=c1c(O)c(-c2ccc(O)c(O)c2)oc2cc(O)cc(O)c12` [Qr, Quercetin] the Plasma concentrations (IQ group (oral IQ 50 mg/kg), 5 min) was 97 ng/mL and 72.1 ng/mL, the Plasma concentrations (IQ group (oral IQ 50 mg/kg), 120 min) was 1913.8 ng/mL and 3969.5 ng/mL and 3663.4 ng/mL and 3592.6 ng/mL and 4482.8 ng/mL and the Plasma concentrations (IQ group (oral IQ 50 mg/kg), 180 min) was 2424.7 ng/mL and 3384.3 ng/mL and 2628.6 ng/mL and 529.3 ng/mL and 3851.1 ng/mL. For the same molecule, the Plasma concentrations (IQ group (oral IQ 50 mg/kg), 240 min) was 1940 ng/mL and 3381.2 ng/mL and 2408.4 ng/mL and 1320.4 ng/mL and 1250.9 ng/mL, the Plasma concentrations (IQ group (oral IQ 50 mg/kg), 360 min) was 1313.4 ng/mL and 2984 ng/mL and 4511 ng/mL and 1879.1 ng/mL and 1080.1 ng/mL and the Plasma concentrations (IQ group (oral IQ 50 mg/kg), 480 min) was 1825.8 ng/mL and 2829.2 ng/mL and 642.1 ng/mL and 975.9 ng/mL and 503.3 ng/mL. The Plasma concentrations (IQ group (oral IQ 50 mg/kg), 1440 min) was 90.3 ng/mL and 1333.2 ng/mL and 1663.4 ng/mL and 210.4 ng/mL and 61.1 ng/mL, the “AUC(0-t)” value [1] was 2661.03 mg·min/L and 1721.03 mg·min/L and 1261.04 mg·min/L and 1844.61 mg·min/L and 3575.83 mg·min/L and the Cmax [1] was 8460 ng/mL and 10370.3 ng/mL and 4575 ng/mL and 4452 ng/mL and 5147 ng/mL. The Tmax [1] was 30 min and 60 min, the t1/2z [1] was 2.34307 h and 7.45293 h and 4.46562 h and 15.5735 h and the “Detection in rat plasma” value (IQ group: oral IQ 50 mg/kg) was “measured”. The Plasma concentrations (QG group (oral QG 50 mg/kg), 5 min) was 0 ng/mL, the Plasma concentrations (QG group (oral QG 50 mg/kg), 120 min) was 0 ng/mL and 178 ng/mL and 350 ng/mL and 264.3 ng/mL and 91.3 ng/mL and the Plasma concentrations (QG group (oral QG 50 mg/kg), 180 min) was 1405.7 ng/mL and 1522.4 ng/mL and 4112 ng/mL and 56.4 ng/mL and 1551 ng/mL. For the same molecule, the Plasma concentrations (QG group (oral QG 50 mg/kg), 240 min) was 2385.9 ng/mL and 4434.6 ng/mL and 6808.5 ng/mL and 1445.9 ng/mL and 1915.9 ng/mL, the Plasma concentrations (QG group (oral QG 50 mg/kg), 360 min) was 997.6 ng/mL and 4127.1 ng/mL and 4268 ng/mL and 6817.8 ng/mL and 3639.1 ng/mL and the Plasma concentrations (QG group (oral QG 50 mg/kg), 480 min) was 880.9 ng/mL and 5383.5 ng/mL and 6785.2 ng/mL and 4353.5 ng/mL and 4449.8 ng/mL. For the same molecule, the Plasma concentrations (QG group (oral QG 50 mg/kg), 1440 min) was 254.4 ng/mL and 878.4 ng/mL and 519.9 ng/mL and 325 ng/mL and 366.2 ng/mL, the “AUC(0-t)” value [2] was 1100.93 mg·min/L and 4341.94 mg·min/L and 5313.01 mg·min/L and 3484.77 mg·min/L and 3287.74 mg·min/L and the Cmax [2] was 2385.9 ng/mL and 5384 ng/mL and 6808 ng/mL and 6818 ng/mL and 4450 ng/mL. The Tmax [2] was 480 min (2×) and 240 min and 360 min, the t1/2z [2] was 9.05187 h and 8.35598 h and 5.58873 h and 4.1639 h and 3.28813 h and the Plasma concentrations (Qr group (oral Qr 50 mg/kg), 5 min) was 640.7 ng/mL and 69.5 ng/mL and 57.3 ng/mL and 802.4 ng/mL and 171.1 ng/mL. The Plasma concentrations (Qr group (oral Qr 50 mg/kg), 120 min) was 4624.9 ng/mL and 4603.8 ng/mL and 5199.9 ng/mL and 1294.5 ng/mL and 3649 ng/mL, the Plasma concentrations (Qr group (oral Qr 50 mg/kg), 180 min) was 3310.6 ng/mL and 4410.7 ng/mL and 6178.3 ng/mL and 1059.8 ng/mL and 3541.5 ng/mL and the Plasma concentrations (Qr group (oral Qr 50 mg/kg), 240 min) was 1969.1 ng/mL and 3087.5 ng/mL and 1750.4 ng/mL and 2254.1 ng/mL. For the same molecule, the Plasma concentrations (Qr group (oral Qr 50 mg/kg), 360 min) was 3069.3 ng/mL and 1565.6 ng/mL and 2529.6 ng/mL and 1025.9 ng/mL and 1740.7 ng/mL, the Plasma concentrations (Qr group (oral Qr 50 mg/kg), 480 min) was 1701.5 ng/mL and 2705.9 ng/mL and 3008.7 ng/mL and 1156.8 ng/mL and 828.8 ng/mL and the Plasma concentrations (Qr group (oral Qr 50 mg/kg), 1440 min) was 416.7 ng/mL and 431.9 ng/mL and 601.2 ng/mL and 220.4 ng/mL and 329.6 ng/mL. For the same molecule, the “AUC(0-t)” value [3] was 2664.65 mg·min/L and 3200.67 mg·min/L and 3831.17 mg·min/L and 1368.81 mg·min/L and 1887.27 mg·min/L, the Cmax [3] was 7855 ng/mL and 9701 ng/mL and 9916 ng/mL and 3579 ng/mL and 6280 ng/mL and the Tmax [3] was 90 min and 30 min. The t1/2z [3] was 6.20775 h and 8.55312 h and 6.68888 h and 7.31962 h, the “Detection in rat plasma” value (Qr group: oral Qr 50 mg/kg) was “could be detected in rat plasma” and the CL (Qr group: oral Qr 50 mg/kg, rat plasma, mean ± SD, n = 5) was 20 ± 8 mL/min/kg.
